{
  "source": "patent US20180344768A1",
  "about": "“NK CELL-BASED THERAPY” (Onkimmune Limited, priority 2016, published 2018)",
  "key": {"[1]": {"test_system": "p-STAT3, p-SHP1, p-SHP2, p-P44/42", "assay": "IL-6 / IL-2 signaling in KHYG-1 cells, gel electrophoresis", "assay_type": "cell-based, human", "excerpt": "PE labeled mouse anti-human CD126 (IL-6 receptor alpha chain) (Catalog: 551850), PE labeled mouse anti-human CD130 (gp130, IL-6 receptor-associated signal transducer) (Catalog #:555757), PE-labeled Mouse IgG1 k isotype control (Catalog: 555749), APC-labeled mouse anti-human CD2 (Catalog: 560642), FITC-labeled mouse anti-human CD2 (Catalog: 555326), APC-labeled mouse anti-human PD-L1 (Catalog: 563741) and APC-labeled mouse anti-human PD-L2 (Catalog: 557926) were bought from BD Pharmingen. APC-labeled mouse anti-human PD1 antibody (Catalog: 329907) was bought from Biolegend. Phosphor-Stat3(Ser727) mouse mAb (Catalog:9136), Phosphor-Shp-1(Tyr564) rabbit mAb (Catalog; 8849), Phosphor-Shp-2(Tyr580) rabbit mAb (Catalog: 5431), Phospho-p44/42 MAPK (Erk1/2) (Thr202/Tyr204) rabbit mAb (Catalog: 4370) and p44/42 MAPK (Erk1/2) rabbit mAb were bought from Cell Signaling Technology. Phosphor-Stat3(Tyr705) mouse mAb (Catalog: sc-81523) and rabbit anti-human Stat3 polyclonal antibody (Catalog: sc-7179) were bought from Santa Cruz Biotechnology. Mouse anti-beta actin (Catalog: A5441) was bought from SIGMA-ALDRICH. Functional IL-6 blocking antibody (Catalog: 501110) and the related isotype control antibody (Catalog: 400414) were bought from Biolegend.\nKHYG-1 cells were cultivated and maintained as mentioned above."}, "PD-L1": {"test_system": "PD-L1", "assay": "Checkpoint ligand expression on MM cells treated with IL-6", "assay_type": "cell-based, human", "settings": "100 ng/mL IL-6, 48 hours", "method": "(§1) MM cells in log phase were seeded at 0.5 million/mL in RPMI1640 medium containing 10% FBS. A final concentration of 100 ng/mL IL-6 or same volume of vehicle (PBS) was used to treat MM cells for 48 hours. Then MM cells were harvested, washed, and stained with PD-L1 and PD-L2 antibodies (2.5 uL/test). Flow cytometric data were acquired using a FACS Canto II, and the results were further analyzed by […] 8.0.1 software."}, "PD-L2": {"test_system": "PD-L2", "assay": "Checkpoint ligand expression on MM cells treated with IL-6", "assay_type": "cell-based, human", "settings": "100 ng/mL IL-6, 48 hours", "method": "as §1"}, "K562 cells": {"test_system": "K562 cells", "assay": "Inhibition of KHYG-1 cell cytotoxicity by IL-6, flow cytometry", "assay_type": "cell-based", "settings": "K562, IL-6 100 ng/mL", "method": "(§2) KHYG-1, RPMI8226, MM1.S and K562 cells were cultured and maintained as described above. Cells were harvested in log phase, washed and re-suspended in pre-warmed appropriate mediums, before adjusting the cell concentration to 1 million/mL. The concentration of target cells was adjusted according to the E:T (effector: target) ratio. 0.5 mL KHYG-1 cells and 0.5 mL target cells were added to one well of a 24-well plate. IL-6 was added to the wells at final concentration of 100 ng/mL. The plates were then placed in a humidified 37° C./5% CO2 incubator for 12 hours (6 or 4 hours for K562 cells). The same mixture of KHYG-1 and target cells at time point 0 hr were used as a control.\n(§3) Flow cytometry was used to measure the cytotoxicity of KHYG-1 cells. The co-cultured cells were collected (at different time points), washed and then stained with CD2-APC antibody (2.5 uL/test) first, then stained with AnnexinV-FITC (2.5 uL/test) and SYTOX-Green (0.5 uL/test) using AnnexinV binding buffer. Data were further analyzed using FlowJo 7.6.1 software. CD2-positive and CD2-negative gates were set which represent KHYG-1 cells and target cells, respectively. KHYG-1 cells were 100% positive for CD2, but K562, RPMI8226 and MM1.S cells were CD2-negative. Finally, the percentage of AnnexinV-FITC and SYTOX-Green positive cells (dead cells) in CD2-negative population was analyzed."}, "RPMI8226 cells": {"test_system": "RPMI8226 cells", "assay": "Inhibition of KHYG-1 cell cytotoxicity by IL-6, flow cytometry", "assay_type": "cell-based", "settings": "RPMI8226, IL-6 100 ng/mL, E:T 1:1, 12 hr incubation", "method": "as §2, §3"}, "MM1.S cells": {"test_system": "MM1.S cells", "assay": "Inhibition of KHYG-1 cell cytotoxicity by IL-6, flow cytometry", "assay_type": "cell-based", "settings": "IL-6 100 ng/mL, E:T 1:1, 12 hr incubation", "method": "as §2, §3"}, "[2]": {"test_system": "NKG2A (inhibitory receptor)", "assay": "Receptor expression on KHYG-1 cells after IL-6 stimulation", "assay_type": "cell-based, human", "settings": "50 ng/mL IL-6 in the presence of IL-2, 24 hours", "excerpt": "(§4) Negative control means FMO. APC anti-human NKG2D Antibody (catalog number #320807) was bought from Biolegend. APC anti-human NKG2A Antibody (catalog number FAB1059A) was bought from R&D systems."}, "[3]": {"test_system": "NKG2D (activating receptor)", "assay": "Receptor expression on KHYG-1 cells after IL-6 stimulation", "assay_type": "cell-based, human", "settings": "50 ng/mL IL-6 in the presence of IL-2, 24 hours", "excerpt": "as §4"}, "[4]": {"settings": "KHYG-1 cells starved of IL-2 for 6 hours, cytokine alone (IL-2 10 ng/mL or IL-6 100 ng/mL)"}, "[5]": {"settings": "KHYG-1 cells, IL-6 in the presence of IL-2"}},
  "data": [
    {"substance": "IL-6: Recombinant Human IL-6 (Catalog: 200-06) from PEPROTECH", "values": [
      {"measurement": "p-P44/42", "setting": "[1]; [4]", "value": "decreased expression"},
      {"measurement": "p-SHP1", "setting": "[1]; [4]", "value": "activated"},
      {"measurement": "p-SHP2", "setting": "[1]; [4]", "value": "activated"},
      {"measurement": "p-STAT3", "setting": "[1]; [4]", "value": "activated"},
      {"measurement": "p-P44/42 expression", "setting": "[1]; [5]", "value": "decreasing"},
      {"measurement": "p-SHP1 expression", "setting": "[1]; [5]", "value": "increasing"},
      {"measurement": "p-SHP2 expression", "setting": "[1]; [5]", "value": "increasing"},
      {"measurement": "PD-L1 expression", "setting": "PD-L1; MM1.S cells", "value": "upregulation"},
      {"measurement": "PD-L1 expression", "setting": "PD-L1; NCI-H929 cells", "value": "upregulation"},
      {"measurement": "PD-L1 expression", "setting": "PD-L1; RPMI8226 cells", "value": "upregulation"},
      {"measurement": "PD-L1 expression", "setting": "PD-L1; U266 cells", "value": "upregulation"},
      {"measurement": "PD-L2 expression", "setting": "PD-L2; MM1.S cells", "value": "upregulation"},
      {"measurement": "PD-L2 expression", "setting": "PD-L2; NCI-H929 cells", "value": "upregulation"},
      {"measurement": "PD-L2 expression", "setting": "PD-L2; RPMI8226 cells", "value": "upregulation"},
      {"measurement": "PD-L2 expression", "setting": "PD-L2; U266 cells", "value": "upregulation"},
      {"measurement": "percentage of dead target cells co-cultured with KHYG-1 cells", "setting": "K562 cells; E:T 1:1, 4 hr incubation", "value": "decreased"},
      {"measurement": "percentage of dead target cells co-cultured with KHYG-1 cells", "setting": "K562 cells; E:T 1:1, 6 hr incubation", "value": "decreased"},
      {"measurement": "percentage of dead target cells co-cultured with KHYG-1 cells", "setting": "RPMI8226 cells", "value": "decreased"},
      {"measurement": "percentage of dead target cells co-cultured with KHYG-1 cells", "setting": "MM1.S cells", "value": "decreased"},
      {"measurement": "NKG2A expression", "setting": "[2]", "value": "increasing expression"},
      {"measurement": "NKG2D expression levels", "setting": "[3]", "value": "decreasing expression levels"}
    ]}
  ]
}
